Biological target: T1, IGF-1R (Homo sapiens, UniProt P08069)
T1 construct: expressed in transfected cells; host or cells: Hek293 (Hek293-IGF1R)
Test: Cellular IGF-1R assay: capture ELISA (MSD) of receptor phosphorylation in Hek293 cells
Assay type: cell-based
Conditions: Hek293-IGF1R cells, 1 h pre-incubation, 10 min IGF stimulation, pIGF1R capture ELISA
Method: (§1) In this assay the activity of the compounds of the invention against Insulin-like growth factor I (IGF-I) induced autophosphorylation of the IGF-IR was determined. The assay was conducted as follows: Compound-mediated inhibition of IGF1R and INSR phosphorylation in Hek293 cells transduced with the corresponding receptors was assessed in a capture ELISA format using the MSD (Meso Scale Discovery) platform. Briefly, 30,000 cells washed and diluted in starvation medium (DMEM high glucose supplemented with 0.1% BSA) were seeded in 90 μL per well into 96-well plates pre-coated with poly-D-lysine (0.1 mg/mL in PBS/O). After 24 h incubation at 37° C. and 5% CO2, dose-response effects were determined with 3-fold serial compound dilutions, starting at 10 μM. The final vehicle concentration is 0.1% DMSO in all wells. Following pre-incubation with compounds for 1 h, receptor phosphorylation was triggered by a 10 min exposure to 1.0 ng/μL IGF for Hek293-IGF1R cells, and 5.0 ng/μL insulin for Hek293-InsR cells. Cell lysis was achieved by addition of 80 μL MSD lysis buffer per aspirated well, incubation on ice for 20 min, and a freeze-thaw cycle. Target phosphorylation was then assessed by transferring volumes corresponding to approx. 6 μg Hek293-IGF1R or 0.6 μg Hek293-InsR lysates to MSD assay plates pre-coated with total-IGF1R or total-InsR Abs, respectively. […] Immune complexes were detected by a SULFO-Tag™-coupled anti-rabbit IgG antibody in the presence of 150 μL MSD read-buffer. Light emission at 620 nm triggered by application of electric current was recorded on a MSD Sectorlmager 6000. Acquired raw data (mean Ru-ECL units) were processed in an Excel analysis template. The plate blank (MSD lysis buffer) was subtracted from all data points. The effect of a particular test compound concentration on receptor phosphorylation was expressed relative to the window defined by ligand-stimulated vs unstimulated control cells (set as 100%). IC50 values [nM] were determined using 4-parametric curve-fitting (XLfit software, V4.3.2).
as §1, with “Compound-mediated” for “In this assay the activity of the compounds of the invention against Insulin-like growth factor I (IGF-I) induced autophosphorylation of the IGF-IR was determined. The assay was conducted as follows: Compound-mediated”, “cells trans-duced” for “cells transduced”, “receptors were” for “receptors was”, “concentration was” for “concentration is”, “for Hek293-IGF1 R” for “for Hek293-IGF1R”, “with total-IGF1 R” for “with total-IGF1R”

T1 sequence (P08069 31-1367): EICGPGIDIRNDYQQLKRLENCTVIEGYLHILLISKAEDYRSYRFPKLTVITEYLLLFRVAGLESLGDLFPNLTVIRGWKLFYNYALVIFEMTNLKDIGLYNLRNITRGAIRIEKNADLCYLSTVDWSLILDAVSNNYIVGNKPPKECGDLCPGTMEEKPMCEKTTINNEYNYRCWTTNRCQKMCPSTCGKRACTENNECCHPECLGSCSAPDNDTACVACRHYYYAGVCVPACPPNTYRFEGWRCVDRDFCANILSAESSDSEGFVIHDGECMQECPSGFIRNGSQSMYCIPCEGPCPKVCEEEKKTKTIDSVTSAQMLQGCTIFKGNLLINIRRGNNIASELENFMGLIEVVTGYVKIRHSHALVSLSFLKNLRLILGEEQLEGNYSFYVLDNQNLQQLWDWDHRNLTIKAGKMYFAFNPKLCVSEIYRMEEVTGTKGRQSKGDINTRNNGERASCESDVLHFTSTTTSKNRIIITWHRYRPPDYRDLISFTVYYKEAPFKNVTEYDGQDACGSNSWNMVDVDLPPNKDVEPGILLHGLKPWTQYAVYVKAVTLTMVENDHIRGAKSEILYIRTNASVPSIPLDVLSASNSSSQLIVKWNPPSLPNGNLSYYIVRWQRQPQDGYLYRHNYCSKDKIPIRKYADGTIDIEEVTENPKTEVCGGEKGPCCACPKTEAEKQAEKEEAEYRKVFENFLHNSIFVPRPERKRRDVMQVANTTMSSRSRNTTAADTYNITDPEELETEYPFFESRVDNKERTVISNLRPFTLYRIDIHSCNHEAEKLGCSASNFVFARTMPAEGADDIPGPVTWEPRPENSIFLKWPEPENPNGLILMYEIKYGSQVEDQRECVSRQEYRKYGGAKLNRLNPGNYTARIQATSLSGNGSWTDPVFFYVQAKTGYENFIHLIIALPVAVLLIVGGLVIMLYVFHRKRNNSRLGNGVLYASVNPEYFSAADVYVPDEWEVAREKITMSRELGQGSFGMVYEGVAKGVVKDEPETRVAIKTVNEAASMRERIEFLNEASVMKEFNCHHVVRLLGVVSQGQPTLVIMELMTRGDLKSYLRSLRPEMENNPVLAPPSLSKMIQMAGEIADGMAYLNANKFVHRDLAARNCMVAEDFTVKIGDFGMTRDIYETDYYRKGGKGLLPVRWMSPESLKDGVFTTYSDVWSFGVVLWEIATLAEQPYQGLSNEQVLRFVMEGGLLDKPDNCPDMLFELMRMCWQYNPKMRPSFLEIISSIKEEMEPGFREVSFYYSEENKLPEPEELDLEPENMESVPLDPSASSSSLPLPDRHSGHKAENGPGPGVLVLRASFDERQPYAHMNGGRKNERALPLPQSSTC

Compound	IC50 [nM]
7-[cis-3-(2-hydroxymethyl-imidazol-1-ylmethyl)-cyclobutyl]-53-(7-oxa-bicyclo[2.2.1]hept-1-ylmethoxy)--phenyl]-7H-pyrrolo[2,3-d]pyrimidin-4-ylamine [Example 176]	149
7-[cis-3-(4-methyltetrazoyl-1-ylmethyl)-cyclobutyl]-5-3-(7-oxa-bicyclo[2.2.1]hept-1-ylmethoxy)-phenyl]-7H-pyrrolo[2,3-d]pyrimidin-4-ylamine [Example 179]	345
7-[cis-3-(N-methylcarboxy-amino-methyl)-cyclobutyl]-5-3-(7-oxa-bicyclo[2.2.1]hept-1-ylmethoxy)-phenyl]-7H-pyrrolo[2,3-d]pyrimidin-4-ylamine [Example 177]	138
Nc1ncnc2c1c(-c1cccc(OCC3CCCCO3)c1)cn2[C@H]1C[C@@H](CN2CCC2)C1 (mixture of isomers) [Example 1, (rac)-cis-7-(3-azetidin-1-ylmethyl-cyclobutyl)-5-[3-(tetrahydro-pyran-2-ylmethoxy)-phenyl]-7H-pyrrolo[2,3-d]pyrimidin-4-ylamine]	119 to 139
Nc1ncnc2c1c(-c1cccc(OCC3CCCCO3)c1)cn2[C@H]1C[C@@H](CN2CC(O)C2)C1 (relative stereo) [Example 28, 1-(cis-3-{4-amino-5-[3-(tetrahydro-pyran-2-ylmethoxy)-phenyl]-pyrrolo[2,3-d]pyrimidin-7-yl}-cyclobutylmethyl)-azetidin-3-ol]	294
Nc1ncnc2c1c(-c1cccc(OCC3CCCCO3)c1)cn2[C@H]1C[C@@H](CN2CCC(F)(F)CC2)C1 (relative stereo) [Example 31, 7-[cis-3-(4,4-difluoro-piperidin-1-ylmethyl)-cyclobutyl]-5-[3-(tetrahydro-pyran-2-ylmethoxy)-phenyl]-7H-pyrrolo[2,3-d]pyrimidin-4-ylamine]	408
Nc1ncnc2c1c(-c1cccc(OCC3CCCCO3)c1)cn2[C@H]1C[C@@H](CN2CCC(F)CC2)C1 (relative stereo) [Example 32, 7-[cis-3-(4-fluoro-piperidin-1-ylmethyl)-cyclobutyl]-5-[3-(tetrahydro-pyran-2-ylmethoxy)-phenyl]-7H-pyrrolo[2,3-d]pyrimidin-4-ylamine]	309
Nc1ncnc2c1c(-c1cccc(OCC3CCCCO3)c1)cn2[C@H]1C[C@H](CN2CC(O)C2)C1 (relative stereo) [Example 36, 1-(trans-3-{4-amino-5-[3-(tetrahydro-pyran-2-ylmethoxy)-phenyl]pyrrolo[2,3-d]pyrimidin-7-yl}-cyclobutylmethyl)-azetidin-3-ol]	372
Nc1ncnc2c1c(-c1cccc(OCC3CCCCO3)c1)cn2[C@H]1C[C@H](CN2CC(F)C2)C1 (relative stereo) [Example 37, 7-[trans-3-(3-fluoro-azetidin-1-ylmethyl)-cyclobutyl]-5-[3-(tetrahydro-pyran-2-ylmethoxy)-phenyl]-7H-pyrrolo[2,3-d]pyrimidin-4-ylamine]	497
CC1(C)CCC(COc2cccc(-c3cn([C@H]4C[C@@H](CN5CC(O)C5)C4)c4ncnc(N)c34)c2)O1 (relative stereo) [Example 41, 1-(cis-3-{4-amino-5-[3-(5,5-dimethyl-tetrahydro-furan-2-ylmethoxy)-phenyl]-pyrrolo[2,3-d]pyrimidin-7-yl}-cyclobutylmethyl)-azetidin-3-ol]	41
CC1(C)CCC(COc2cccc(-c3cn([C@H]4C[C@H](CN5CC(O)C5)C4)c4ncnc(N)c34)c2)O1 (relative stereo) [Example 48, 1-(trans-3-{4-amino-5-[3-(5,5-dimethyl-tetrahydro-furan-2-ylmethoxy)-phenyl]-pyrrolo[2,3-d]pyrimidin-7-yl}-cyclobutylmethyl)-azetidin-3-ol]	26
CC1(C)CCC(COc2cccc(-c3cn([C@H]4C[C@@H](CN5CC(C(N)=O)C5)C4)c4ncnc(N)c34)c2)O1 (relative stereo) [Example 49, 1-(cis-3-{4-amino-5-[3-(5,5-dimethyl-tetrahydro-furan-2-ylmethoxy)-phenyl]-pyrrolo[2,3-d]pyrimidin-7-yl}-cyclobutylmethyl)-azetidine-3-carboxylic acid amide]	192 to 241
CC1(C)CCC(COc2cccc(-c3cn([C@H]4C[C@@H](CN5CC[C@@H](F)C5)C4)c4ncnc(N)c34)c2)O1 (relative stereo) [Example 52, 5-[cis-3-(5,5-dimethyl-tetrahydro-furan-2-ylmethoxy)-phenyl]-7-[3-((R)-3-fluoro-pyrrolidin-1-ylmethyl)cyclobutyl]-7H-pyrrolo[2,3-d]pyrimidin-4-ylamine]	37
CC1(C)CCC(COc2cccc(-c3cn([C@H]4C[C@@H](CN5CCC(F)(F)CC5)C4)c4ncnc(N)c34)c2)O1 (relative stereo) [Example 53, 7-[cis-3-(4,4-difluoro-piperidin-1-ylmethyl)-cyclobutyl]-5-[3-(5,5-dimethyl-tetrahydro-furan-2-ylmethoxy)-phenyl]-7H-pyrrolo[2,3-d]pyrimidin-4-ylamine]	32 to 37
CN1CCN([C@H]2CC[C@H](n3cc(-c4cccc(OCC5CCC(C)(C)O5)c4)c4c(N)ncnc43)CC2)CC1 (relative stereo) [Example 62, 5-[3-(5,5-dimethyl-tetrahydro-furan-2-ylmethoxy)-phenyl]-7-[trans-4-(4-methyl-piperazin-1-yl)-cyclohexyl]-7H-pyrrolo[2,3-d]pyrimidin-4-ylamine]	314
CN1CCN([C@H]2CC[C@@H](n3cc(-c4cccc(OCC5CCC(C)(C)O5)c4)c4c(N)ncnc43)CC2)CC1 (relative stereo) [Example 63, 5-[3-(5,5-dimethyl-tetrahydro-furan-2-ylmethoxy)-phenyl]-7-[cis-4-(4-methyl-piperazin-1-yl)-cyclohexyl]-7H-pyrrolo[2,3-d]pyrimidin-4-ylamine]	61
CC1(C)CCC(COc2cccc(-c3cn([C@H]4CC[C@H](N5CCOCC5)CC4)c4ncnc(N)c34)c2)O1 (relative stereo) [Example 64, 5-[3-(5,5-dimethyl-tetrahydro-furan-2-ylmethoxy)-phenyl]-7-(trans-4-morpholin-4-yl-cyclohexyl)-7H-pyrrolo[2,3-d]pyrimidin-4-ylamine]	367
CC1(C)CCC(COc2cccc(-c3cn([C@H]4CC[C@@H](N5CCOCC5)CC4)c4ncnc(N)c34)c2)O1 (relative stereo) [Example 65, 5-[3-(5,5-dimethyl-tetrahydro-furan-2-ylmethoxy)-phenyl]-7-(cis-4-morpholin-4-yl-cyclohexyl)-7H-pyrrolo[2,3-d]pyrimidin-4-ylamine]	128
CC1(C)CCC(COc2cccc(-c3cn([C@H]4C[C@@H](CN5CCSC5)C4)c4ncnc(N)c34)c2)O1 (relative stereo) [Example 70, 5-[3-(5,5-dimethyl-tetrahydro-furan-2-ylmethoxy)-phenyl]-7-(cis-3-thiazolidin-3-ylmethyl-cyclobutyl)-7H-pyrrolo[2,3-d]pyrimidin-4-ylamine]	59
Nc1ncnc2c1c(-c1cccc(OCC3CCCO3)c1)cn2[C@H]1C[C@@H](CN2CCC(F)(F)CC2)C1 (relative stereo) [Example 83, 7-[cis-3-(4,4-difluoro-piperidin-1-ylmethyl)-cyclobutyl]-5-[3-(tetrahydro-furan-2-ylmethoxy)-phenyl]-7H-pyrrolo[2,3-d]pyrimidin-4-ylamine]	372
